From ChEMBL document CHEMBL1201862, “PubChem BioAssay data set” (2004) come the findings set out here.

Some test systems named below: 786-0; COLO 205; DU-145; HCT-15; HOP-62; HOP-92; Hs-578T; KM12; MCF7; NCI-H226; RXF 393; SF-295; SK-MEL-2; U-251; NCI-H522; SK-MEL-28; SN12C; MDA-N.
What all share (test): NCI-60 cell line screen, 48 h

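Grown in 96-well plates, cells were treated for 48 hours with each compound at five concentrations. Insufficient inhibition: endpoint recorded as highest concentration tested. GI50 = concentration required for 50% inhibition of growth.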 Calls of active or inactive are those of the source. Rule as the data show it: active = GI50 up to about 1.1 µM and inactive = higher. Where only a bound is given, the exact number is not on record here.

For `Cc1ccc(S(=O)(=O)NC(=O)Nc2nnc(S(N)(=O)=O)s2)cc1`, the GI50 with 786-0 is > 100 µM (inactive); in the experiment on COLO 205, > 100 µM (inactive); in the experiment with DU-145 it was > 100 µM (inactive); in the experiment on HCT-15, over 100 µM; in the experiment on HOP-62, > 100 µM (inactive); in the experiment on HOP-92, > 100 µM (inactive). Also, the GI50 with Hs-578T, in the experiment with KM12, with MCF7, in the experiment with NCI-H226, with RXF 393 and in the experiment with SF-295 was > 100 µM (inactive) each time. The GI50 in the experiment on SK-MEL-2 and in the experiment on U-251 was > 100 µM (inactive) each time.
Take `N#Cc1c(N)n(C2OC(CO)C(O)C2O)c2ncnc(N)c12` (stereo unspecified): the GI50 was 0.0671 µM (active) in the experiment on 786-0; 0.0329 µM (active) in the experiment on COLO 205; 0.112 µM (active) in the experiment with DU-145; 0.0277 µM in the experiment on HCT-15; 0.0335 µM (active) in the experiment with HOP-62; 0.136 µM (active) with HOP-92. Besides, the GI50 in the experiment on Hs-578T is 0.144 µM (active); with KM12, 0.0417 µM (active); in the experiment on MCF7, 0.0168 µM (active); in the experiment with NCI-H226 it was 0.0684 µM (active); in the experiment on NCI-H522 it was 0.135 µM (active); in the experiment on RXF 393 it was 0.153 µM (active). Further, the GI50 was 0.0711 µM (active) in the experiment with SF-295; 0.119 µM (active) in the experiment on SK-MEL-28; 0.0521 µM (active) in the experiment with SK-MEL-2; 0.0186 µM (active) in the experiment with SN12C; 0.114 µM (active) in the experiment on U-251.
In the case of `N#CC12CNCC1CN=N2` (stereo unspecified), the GI50 with 786-0 was > 100 µM (inactive); with COLO 205, > 100 µM (inactive); in the experiment on DU-145 it was > 100 µM (inactive); in the experiment on HCT-15 it was over 100 µM; with HOP-62 it was > 100 µM (inactive); in the experiment with HOP-92 it was > 100 µM (inactive). Further, the GI50 in the experiment on KM12, in the experiment with MCF7, with MDA-N, with NCI-H226, with NCI-H522 and with RXF 393 was > 100 µM (inactive) in each case. Moreover, the GI50 in the experiment on SF-295, in the experiment with SK-MEL-28, with SK-MEL-2, in the experiment on SN12C and in the experiment with U-251 was > 100 µM (inactive) throughout.
For `O=C1OC2C(O)C(=O)OC2C1O` (stereo unspecified), the GI50 in the experiment on 786-0 is > 100 µM (inactive); with COLO 205, > 100 µM (inactive); in the experiment with DU-145, > 100 µM (inactive); in the experiment with HCT-15 it was over 100 µM; with HOP-62 it was > 100 µM (inactive); in the experiment on HOP-92 it was > 100 µM (inactive). Moreover, the GI50 with KM12, with MCF7, with MDA-N, with NCI-H226, with NCI-H522 and in the experiment with RXF 393 was > 100 µM (inactive) in each case. Also, the GI50 in the experiment on SF-295, in the experiment with SK-MEL-28, with SK-MEL-2, in the experiment on SN12C and with U-251 was > 100 µM (inactive) each time.
Regarding `COc1ccc(C[C@@H]2CN(C(=O)c3ccccc3)[C@H](Cc3ccc(O)cc3)CN2C(=O)c2ccccc2)cc1Br`, the GI50 is > 100 µM (inactive) in the experiment on 786-0; > 100 µM (inactive) in the experiment with COLO 205; > 100 µM (inactive) with DU-145; over 100 µM in the experiment on HCT-15; > 100 µM (inactive) in the experiment with HOP-62; > 100 µM (inactive) in the experiment with HOP-92. Besides, the GI50 with Hs-578T, in the experiment on KM12, in the experiment on MCF7, in the experiment with NCI-H226, in the experiment with SF-295 and with SK-MEL-28 was > 100 µM (inactive) throughout. Also, the GI50 in the experiment with SK-MEL-2 and in the experiment with SN12C was > 100 µM (inactive) in each case.
For `O=C(CC(=O)N1N=C(N(c2ccccc2)c2ccccc2)CC1c1ccccc1)Nc1cccc(Cl)c1` (stereo unspecified), the GI50 was > 100 µM (inactive) in the experiment with 786-0; > 100 µM (inactive) in the experiment with COLO 205; > 100 µM (inactive) in the experiment on DU-145; over 100 µM in the experiment with HCT-15; > 100 µM (inactive) in the experiment with HOP-62; > 100 µM (inactive) with HOP-92. In addition, the GI50 in the experiment on Hs-578T, with KM12, in the experiment on MCF7, in the experiment on NCI-H226, in the experiment with NCI-H522 and in the experiment on RXF 393 was > 100 µM (inactive) throughout. Further, the GI50 in the experiment on SF-295, with SK-MEL-28, in the experiment on SK-MEL-2, with SN12C and with U-251 was > 100 µM (inactive) throughout.
On to `O=c1[nH]c2ccc(C(F)(F)F)cc2nc1C(F)(F)F`, for which the GI50 with 786-0 is 35.2 µM (inactive); in the experiment with COLO 205, 17.1 µM (inactive); in the experiment on DU-145 it was 23.2 µM (inactive); with HCT-15, 27.9 µM; in the experiment on HOP-62 it was 18.3 µM (inactive); in the experiment on HOP-92, 9.4 µM (inactive). In addition, the GI50 with KM12 was 22.8 µM (inactive); with MCF7 it was 23 µM (inactive); in the experiment on MDA-N, 35.7 µM (inactive); in the experiment with NCI-H226 it was 18.8 µM (inactive); with NCI-H522, 17.5 µM (inactive); in the experiment with RXF 393 it was 5 µM (inactive). Besides, the GI50 in the experiment with SF-295 is 28.7 µM (inactive); in the experiment with SK-MEL-28, 28.8 µM (inactive); with SK-MEL-2, 15 µM (inactive); with SN12C, 29.4 µM (inactive); in the experiment with U-251, 35 µM (inactive).
Consider `C[n+]1c2ccccc2c(N=[N+]=[N-])c2ccccc21`, for which the GI50 in the experiment with 786-0 was 4.53 µM (inactive); in the experiment on COLO 205 it was 4.29 µM (inactive); in the experiment with DU-145, > 10 µM (inactive); with HCT-15 it was 5.66 µM; in the experiment on HOP-62 it was > 10 µM (inactive); in the experiment with Hs-578T, > 10 µM (inactive). For the same compound, the GI50 with KM12 is > 10 µM (inactive); in the experiment on MCF7, 6.95 µM (inactive); in the experiment on NCI-H226 it was 6.27 µM (inactive); with NCI-H522, 8.87 µM (inactive); in the experiment on RXF 393, > 10 µM (inactive); in the experiment with SF-295 it was > 10 µM (inactive). Further, the GI50 is > 10 µM (inactive) in the experiment on SK-MEL-28, > 10 µM (inactive) in the experiment on SK-MEL-2, 7.03 µM (inactive) in the experiment with SN12C and 9.93 µM (inactive) in the experiment on U-251.
Regarding `COc1ccc(CCCCl)c(C2=NCCc3ccccc32)c1`, the GI50 with 786-0 is 89.5 µM (inactive); with COLO 205, 17.3 µM (inactive); in the experiment on DU-145, > 100 µM (inactive); in the experiment with HCT-15 it was over 100 µM; in the experiment with HOP-62, 33.4 µM (inactive); with HOP-92, 71.1 µM (inactive). Moreover, the GI50 in the experiment on Hs-578T was 20.6 µM (inactive); in the experiment with KM12, 27.4 µM (inactive); in the experiment on MCF7, 38.2 µM (inactive); with NCI-H226, 31.7 µM (inactive); in the experiment with NCI-H522, 6.75 µM (inactive); in the experiment with RXF 393, 56.9 µM (inactive). The GI50 was 32.8 µM (inactive) in the experiment with SF-295; > 100 µM (inactive) in the experiment with SK-MEL-28; 61.7 µM (inactive) in the experiment with SK-MEL-2; 9.91 µM (inactive) in the experiment with SN12C; 9.75 µM (inactive) in the experiment on U-251.
In the case of `CC(=O)N1c2ccccc2N(C(C)=O)C1c1ccc(C2N(C(C)=O)c3ccccc3N2C(C)=O)[nH]1`, the GI50 was > 100 µM (inactive) with 786-0; > 100 µM (inactive) in the experiment with COLO 205; over 100 µM in the experiment on HCT-15; > 100 µM (inactive) in the experiment with HOP-62; > 100 µM (inactive) with HOP-92; > 100 µM (inactive) in the experiment on KM12. Besides, the GI50 with NCI-H226, in the experiment with NCI-H522, in the experiment on RXF 393, in the experiment on SF-295, in the experiment on SN12C and in the experiment on U-251 was > 100 µM (inactive) in each case.
As for `O=C1/C(=C/c2cccc([N+](=O)[O-])c2)Sc2scc(-c3ccc([N+](=O)[O-])cc3)[n+]21`, the GI50 with 786-0 is 16.4 µM (inactive); in the experiment with COLO 205, 36.7 µM (inactive); in the experiment with DU-145, 35.2 µM (inactive); in the experiment with HCT-15 it was 14.5 µM; in the experiment with HOP-62, 16.6 µM (inactive); in the experiment with HOP-92, 24.5 µM (inactive). The GI50 was 15.2 µM (inactive) with KM12; 24.7 µM (inactive) in the experiment with MCF7; 24.5 µM (inactive) in the experiment with MDA-N; 26.3 µM (inactive) in the experiment on NCI-H226; 14.8 µM (inactive) in the experiment with SF-295; 25.5 µM (inactive) in the experiment with SK-MEL-28. Also, the figures for the GI50 in the experiment with SK-MEL-2, with SN12C and with U-251 were 20.2 µM (inactive), 18.3 µM (inactive) and 27.2 µM (inactive), respectively.
`COC(=O)C1C(O)C(C)C(=O)C(C)/C=C\C=C(C)C(=O)Nc2c(C)c(OC(C)=O)c3c(c2O)C(=O)C(C)=C2OCOC(=C23)C(C)=CC(C)(O)C(O)C(C)C1O` (stereo unspecified): the GI50 in the experiment with 786-0 is 54.6 µM (inactive); with COLO 205, 25.1 µM (inactive); with DU-145, 15 µM (inactive); with HCT-15, 21.6 µM; in the experiment on HOP-62 it was > 100 µM (inactive); with HOP-92, 50.5 µM (inactive). The GI50 with Hs-578T was 37.4 µM (inactive); with KM12, 36.6 µM (inactive); in the experiment on MCF7 it was 27.4 µM (inactive); with NCI-H226, 46.7 µM (inactive); in the experiment on NCI-H522 it was 43.5 µM (inactive); in the experiment on RXF 393, 31.1 µM (inactive). Also, the GI50 with SF-295 was 62.2 µM (inactive); with SK-MEL-28 it was 27.4 µM (inactive); in the experiment with SK-MEL-2 it was 25.2 µM (inactive); with SN12C, 31.4 µM (inactive); in the experiment with U-251 it was 96.8 µM (inactive).
As for `O=C1/C(=C/c2ccc(O)cc2)CCC1CNc1ccccc1` (stereo unspecified), the GI50 in the experiment with 786-0 was 6.9 µM (inactive); in the experiment on COLO 205 it was 11.1 µM (inactive); with DU-145, 12.3 µM (inactive); in the experiment with HCT-15, 5.05 µM; in the experiment with HOP-62, 18.3 µM (inactive); with HOP-92, 14.4 µM (inactive). The GI50 with Hs-578T is 21.5 µM (inactive); with KM12, 6.65 µM (inactive); in the experiment on MCF7, 2.25 µM (inactive); in the experiment on NCI-H226, 17.9 µM (inactive); in the experiment with NCI-H522, 2.4 µM (inactive); in the experiment on RXF 393, 20.3 µM (inactive). Also, the GI50 is 15.9 µM (inactive) in the experiment on SF-295, 15.4 µM (inactive) in the experiment on SK-MEL-28, 15 µM (inactive) in the experiment with SN12C and 16.4 µM (inactive) in the experiment on U-251.
